Test results published in publication PMC5958098, “The trimeric solution structure and fucose-binding mechanism of the core fucosylation-specific lectin PhoSL” (Scientific Reports, 2018).
One block for each molecule: values may come before it.

Tests used:
PhoSL = molecular target: T1, PhoSL (Pholiota squarrosa, UniProt A0A384E107); assay: NMR chemical shift titration; assay type: binding; conditions: 20 mM Tris-HCl pH 7.5, 0.2 mM DTT, 308 K; 50 μM peptide (as monomer); average for the two anomers
T1 construct: chemically synthesized 40-residue peptide, free termini, no tag, reduced Cys (DTT), homotrimer; […]; repeat 1 of a 180-residue polypeptide; differs from literature peptide at positions 23, 27, 35, 40

[1] = molecular target: the molecule itself; assay: SEC; Superdex 75 10/300 with marker proteins; 96 μM PhoSL peptide; 20 mM Tris-HCl pH 7.5, 100 mM NaCl

Kd (PhoSL): 5.9 ± 0.2 mM
Molecule: C[C@@H]1OC(O)[C@@H](O)[C@H](O)[C@@H]1O (mixture of isomers) [L-fucose]

B1: PhoSL peptide (core α1–6 fucosylation-specific lectin from Pholiota squarrosa), chemically synthesized, 40 residues (peptide)
chain: APVPVTKLVCDGDTYKCTAYLDYGDGKWVAQWDTAVFHTT
notes: PhoSL lectin of Pholiota squarrosa; it corresponds to the first of three PhoSL-like repeats of the 180-residue polypeptide; numbers count on: the 40-residue peptide; No N-terminal acetylation and no C-terminal amidation; Cys10 and Cys17 were reduced (DTT) in the NMR samples; Homotrimer by gel filtration combined with cross-linking, and by the NMR structure; also called PhoSL trimer; source: …
stoichiometry N [1]: 3
